Drawing on PubChem BioAssay (NCI), this text covers TGI for seven compounds.

Test systems include 786-0 renal; NCI-H522 lung; OVCAR-3 ovarian; NCI-H460 lung; HCT-15 colon; SNB-19 CNS; T-47D breast; UO-31 renal; KM12 colon; MCF7 breast; UACC-257 melanoma; MDA-MB-435; MOLT-4 leukemia; NCI/ADR-RES ovarian; DU-145 prostate; HT29 colon; SK-OV-3 ovarian; PC-3 prostate; UACC-62 melanoma; A498 renal.
Assay in all cases: NCI anticancer screen, dose series, 48 h

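Values below derive from 48-hour exposures of cells grown in 96-well plates, with endpoints linearly interpolated between the two concentrations bracketing the appropriate inhibition level. TGI is the concentration that stops growth completely.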 Some results are limits rather than exact numbers.

Turning to `COC(=O)n1c(C)c(C=O)c2ccc(OC)cc21`, the TGI was more than 100 µM in the experiment on 786-0 renal; more than 100 µM in the experiment on NCI-H522 lung; more than 100 µM in the experiment on OVCAR-3 ovarian; more than 100 µM in the experiment on NCI-H460 lung; 82.7 µM in the experiment on HCT-15 colon; more than 100 µM in the experiment with SNB-19 CNS. For the same compound, the TGI was more than 100 µM in the experiment with T-47D breast; more than 100 µM in the experiment with UO-31 renal; 89.9 µM with KM12 colon; 88.2 µM in the experiment on MCF7 breast; more than 100 µM in the experiment on UACC-257 melanoma; 47.2 µM in the experiment with MDA-MB-435. Further, the TGI in the experiment with MOLT-4 leukemia, with NCI/ADR-RES ovarian, with DU-145 prostate, in the experiment with HT29 colon, in the experiment on SK-OV-3 ovarian and with PC-3 prostate was more than 100 µM throughout. This compound also displayed a TGI in the experiment on UACC-62 melanoma of 57.1 µM.

As for `NC(N)=NS(=O)(=O)c1ccc(NNC(=O)c2cccc3c(=O)c4ccccc4[nH]c23)cc1`, the TGI in the experiment on 786-0 renal was more than 100 µM; with NCI-H522 lung, 46.1 µM; with OVCAR-3 ovarian, 57.5 µM; with NCI-H460 lung, 49.1 µM; in the experiment with HCT-15 colon, 50.5 µM; with SNB-19 CNS it was more than 100 µM. Moreover, the TGI in the experiment on T-47D breast came out at 59.2 µM; in the experiment with UO-31 renal, 50.4 µM; in the experiment with KM12 colon, 57 µM; with MCF7 breast, 34.3 µM; with UACC-257 melanoma, 74.8 µM; in the experiment with MDA-MB-435, 57.5 µM. For the same compound, the TGI in the experiment on MOLT-4 leukemia was 80.9 µM; in the experiment on NCI/ADR-RES ovarian, more than 100 µM; with DU-145 prostate it was more than 100 µM; in the experiment on HT29 colon it was 41.8 µM; with SK-OV-3 ovarian it was 89.2 µM; with PC-3 prostate, 89.7 µM. The compound also had a TGI with UACC-62 melanoma of 88.9 µM.

On to `CCOC(=O)c1nc2ccccc2nc1Oc1ccc(C#N)cc1`, for which the TGI in the experiment with 786-0 renal, in the experiment on OVCAR-3 ovarian, with NCI-H460 lung, with HCT-15 colon, in the experiment with SNB-19 CNS and in the experiment on T-47D breast was more than 100 µM each time. Besides, the TGI with UO-31 renal, with KM12 colon, with MCF7 breast, in the experiment with UACC-257 melanoma, in the experiment on MDA-MB-435 and in the experiment on MOLT-4 leukemia was more than 100 µM each time. Also, the TGI in the experiment on A498 renal, in the experiment with NCI/ADR-RES ovarian, in the experiment with DU-145 prostate, with HT29 colon, with SK-OV-3 ovarian and with PC-3 prostate was more than 100 µM each time. Besides, the TGI in the experiment on UACC-62 melanoma was more than 100 µM.

Regarding `NC(=O)c1nnsc1NN=O`, the TGI in the experiment on 786-0 renal, with NCI-H522 lung, in the experiment with NCI-H460 lung, in the experiment on HCT-15 colon, in the experiment with SNB-19 CNS and with T-47D breast was more than 100 µM throughout. Moreover, the TGI in the experiment with UO-31 renal, in the experiment with KM12 colon, in the experiment with MCF7 breast, in the experiment on UACC-257 melanoma, in the experiment with MDA-MB-435 and with MOLT-4 leukemia was more than 100 µM each time. Also, the TGI with A498 renal, in the experiment on NCI/ADR-RES ovarian, in the experiment on DU-145 prostate, in the experiment on HT29 colon, in the experiment with SK-OV-3 ovarian and in the experiment with PC-3 prostate was more than 100 µM in each case. For the same compound, in the experiment on UACC-62 melanoma, the TGI was more than 100 µM.

For `CCc1cc2c(c3c1CCCC3)CC1(Cc3ccc(C(=O)OC)cc3C1)C2` (stereo unspecified), the TGI in the experiment with 786-0 renal, in the experiment on NCI-H522 lung, in the experiment on OVCAR-3 ovarian, in the experiment with NCI-H460 lung, with HCT-15 colon and in the experiment on SNB-19 CNS was more than 100 µM throughout. The TGI with T-47D breast, in the experiment on UO-31 renal, in the experiment on KM12 colon, in the experiment with MCF7 breast, in the experiment on UACC-257 melanoma and with MDA-MB-435 was more than 100 µM throughout. Further, the TGI with MOLT-4 leukemia, in the experiment on NCI/ADR-RES ovarian, in the experiment with DU-145 prostate, in the experiment with HT29 colon, in the experiment on SK-OV-3 ovarian and with PC-3 prostate was more than 100 µM each time. The compound further returned a TGI in the experiment on UACC-62 melanoma of more than 100 µM.

For `CC1(C)S[C@H](CN)N[C@H]1C(=O)OC(c1ccccc1)c1ccccc1`, the TGI with 786-0 renal is more than 100 µM; with NCI-H522 lung, 83.4 µM; with HCT-15 colon it was more than 100 µM; with T-47D breast, 74.3 µM; in the experiment on UO-31 renal it was 92.6 µM; with KM12 colon it was more than 100 µM. Further, the TGI was more than 100 µM in the experiment with MCF7 breast; 40.5 µM in the experiment with UACC-257 melanoma; more than 100 µM in the experiment with MDA-MB-435; 74.9 µM with MOLT-4 leukemia; 70.4 µM with A498 renal; more than 100 µM in the experiment with NCI/ADR-RES ovarian. The TGI in the experiment with DU-145 prostate was more than 100 µM; in the experiment with HT29 colon, more than 100 µM; with SK-OV-3 ovarian, more than 100 µM; in the experiment on PC-3 prostate it was 92.4 µM; in the experiment on UACC-62 melanoma, 81.4 µM.

Regarding `CCN(CC)c1ccc(C2Nc3ccc4ccccc4c3C3=C2C(=O)CCC3)cc1` (stereo unspecified), the TGI in the experiment with 786-0 renal was 76.8 µM; in the experiment on OVCAR-3 ovarian it was more than 100 µM; with NCI-H460 lung, more than 100 µM; in the experiment with HCT-15 colon it was more than 100 µM; in the experiment on SNB-19 CNS, more than 100 µM; with T-47D breast it was more than 100 µM. For the same compound, the TGI in the experiment with UO-31 renal, with KM12 colon, in the experiment with MCF7 breast, in the experiment on UACC-257 melanoma, in the experiment with MDA-MB-435 and in the experiment on MOLT-4 leukemia was more than 100 µM each time. Also, the TGI in the experiment on A498 renal is more than 100 µM; in the experiment on NCI/ADR-RES ovarian, more than 100 µM; in the experiment on DU-145 prostate it was 62.8 µM; in the experiment with HT29 colon, more than 100 µM; with SK-OV-3 ovarian, more than 100 µM; with PC-3 prostate, more than 100 µM. The TGI in the experiment on UACC-62 melanoma was more than 100 µM.
